Assay results reported in PubChem BioAssay AID248 (DTP/NCI, 2004).
Where “and” joins values, the source holds several entries; their conditions need not be identical. Equal entries are not always repeated. Inconclusive results and toxic doses are left out.

System: L1210 leukemia ip in BDF1 mice, survival T/C
Assay: NCI In Vivo Anticancer Drug Screen. Data for tumor model L1210 Leukemia (intraperitoneal) in B6D2F1 (BDF1) mice
Conditions: higher = longer survival
In short: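 Ratio derived from survival: compound-dosed mice over vehicle-dosed mice, all bearing a transplantable tumor.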

[1] = endpoint: mean survival time, dose: 50.0 mg/kg/injection, schedule: Q01DX001 (ip), vehicle: saline
[2] = endpoint: mean survival time, dose: 100.0 mg/kg/injection, schedule: Q01DX001 (ip), vehicle: carboxymethylcellulose (CMC)
[3] = endpoint: mean survival time, dose: 100.0 mg/kg/injection, schedule: Q01DX001 (ip), vehicle: saline
[4] = endpoint: mean survival time, dose: 100.0 mg/kg/injection, schedule: Q04DX003 (ip), vehicle: saline
[5] = endpoint: mean survival time, dose: 200.0 mg/kg/injection, schedule: Q01DX001 (ip), vehicle: carboxymethylcellulose (CMC)
[6] = endpoint: mean survival time, dose: 400.0 mg/kg/injection, schedule: Q01DX001 (ip), vehicle: carboxymethylcellulose (CMC)
[7] = endpoint: mean survival time, dose: 400.0 mg/kg/injection, schedule: Q01DX001 (ip), vehicle: saline
[8] = endpoint: mean survival time, dose: 400.0 mg/kg/injection, schedule: Q04DX003 (ip), vehicle: saline

Structure (SMILES): O=C(CCBr)N1CCN(C(=O)CCBr)CC1
- T/C (endpoint: mean survival time, dose: 1.33 mg/kg/injection, schedule: Q#B X Z (ip), vehicle: carboxymethylcellulose (CMC)): 86 % of control
- T/C (endpoint: mean survival time, dose: 2.66 mg/kg/injection, schedule: Q#B X Z (ip), vehicle: carboxymethylcellulose (CMC)): 108 % of control
- T/C (endpoint: mean survival time, dose: 3.2 mg/kg/injection, schedule: Q01DX Z (oral), vehicle: carboxymethylcellulose (CMC)): 100 % of control
- T/C (endpoint: mean survival time, dose: 5.33 mg/kg/injection, schedule: Q#B X Z (ip), vehicle: carboxymethylcellulose (CMC)): 103 % of control
- T/C (endpoint: mean survival time, dose: 5.5 mg/kg/injection, schedule: Q07DX006 (ip), vehicle: carboxymethylcellulose (CMC)): 111 % of control
- T/C (endpoint: mean survival time, dose: 5.6 mg/kg/injection, schedule: Q01DX Z (ip), vehicle: methylcellulose (MC)): 120 % of control
- T/C (endpoint: mean survival time, dose: 10.0 mg/kg/injection, schedule: Q01DX009 (ip), vehicle: saline): 94 % of control and 102 % of control
- T/C (endpoint: mean survival time, dose: 10.6 mg/kg/injection, schedule: Q01DX Z (ip), vehicle: carboxymethylcellulose (CMC)): 108 % of control and 117 % of control
- T/C (endpoint: mean survival time, dose: 10.66 mg/kg/injection, schedule: Q#B X Z (ip), vehicle: carboxymethylcellulose (CMC)): 86 % of control
- T/C (endpoint: mean survival time, dose: 10.9 mg/kg/injection, schedule: Q07DX006 (ip), vehicle: carboxymethylcellulose (CMC)): 90 % of control
- T/C (endpoint: mean survival time, dose: 11.25 mg/kg/injection, schedule: Q01DX Z (ip), vehicle: methylcellulose (MC)): 115 % of control
- T/C (endpoint: mean survival time, dose: 12.0 mg/kg/injection, schedule: Q01DX006 (iv), vehicle: carboxymethylcellulose (CMC)): 113 % of control
- T/C (endpoint: mean survival time, dose: 12.0 mg/kg/injection, schedule: Q01DX Z (im), vehicle: carboxymethylcellulose (CMC)): 101 % of control
- T/C (endpoint: mean survival time, dose: 12.0 mg/kg/injection, schedule: Q01DX Z (ip), vehicle: carboxymethylcellulose (CMC)): 95 % of control
- T/C (endpoint: mean survival time, dose: 12.0 mg/kg/injection, schedule: Q01DX Z (sc), vehicle: carboxymethylcellulose (CMC)): 94 % of control
- T/C (endpoint: mean survival time, dose: 12.5 mg/kg/injection, schedule: Q01DX Z (oral), vehicle: carboxymethylcellulose (CMC)): 110 % of control
- T/C (endpoint: mean survival time, dose: 16.0 mg/kg/injection, schedule: Q01DX Z (ip), vehicle: carboxymethylcellulose (CMC)): 111 % of control
- T/C (endpoint: mean survival time, dose: 18.0 mg/kg/injection, schedule: Q01DX009 (ip), vehicle: saline): 155 % of control and 158 % of control
- T/C (endpoint: mean survival time, dose: 20.0 mg/kg/injection, schedule: Q01DX009 (ip), vehicle: saline): 103 % of control and 108 % of control
- T/C (endpoint: mean survival time, dose: 21.8 mg/kg/injection, schedule: Q07DX006 (ip), vehicle: carboxymethylcellulose (CMC)): 106 % of control
- T/C (endpoint: mean survival time, dose: 24.0 mg/kg/injection, schedule: Q01DX Z (ip), vehicle: carboxymethylcellulose (CMC)): 111 % of control
- T/C (endpoint: mean survival time, dose: 25.0 mg/kg/injection, schedule: Q01DX001 (ip), vehicle: saline): 99 % of control and 106 % of control and 111 % of control
- T/C (endpoint: mean survival time, dose: 25.0 mg/kg/injection, schedule: Q01DX006 (iv), vehicle: carboxymethylcellulose (CMC)): 94 % of control
- T/C (endpoint: mean survival time, dose: 25.0 mg/kg/injection, schedule: Q01DX Z (im), vehicle: carboxymethylcellulose (CMC)): 94 % of control
- T/C (endpoint: mean survival time, dose: 25.0 mg/kg/injection, schedule: Q01DX Z (ip), vehicle: carboxymethylcellulose (CMC)): 98 % of control
- T/C (endpoint: mean survival time, dose: 25.0 mg/kg/injection, schedule: Q01DX Z (oral), vehicle: carboxymethylcellulose (CMC)): 120 % of control
- T/C (endpoint: mean survival time, dose: 25.0 mg/kg/injection, schedule: Q01DX Z (sc), vehicle: carboxymethylcellulose (CMC)): 103 % of control
- T/C (endpoint: mean survival time, dose: 36.0 mg/kg/injection, schedule: Q01DX009 (ip), vehicle: saline): 160 % of control and 186 % of control
- T/C (endpoint: mean survival time, dose: 36.0 mg/kg/injection, schedule: Q01DX Z (ip), vehicle: carboxymethylcellulose (CMC)): 150 % of control
- T/C (endpoint: mean survival time, dose: 37.0 mg/kg/injection, schedule: Q03DX008 (ip), vehicle: carboxymethylcellulose (CMC)): 104 % of control
- T/C (endpoint: mean survival time, dose: 45.0 mg/kg/injection, schedule: Q01DX Z (ip), vehicle: methylcellulose (MC)): 172 % of control
- T/C [1]: 110 % of control and 111 % of control and 116 % of control
- T/C (endpoint: mean survival time, dose: 50.0 mg/kg/injection, schedule: Q01DX006 (iv), vehicle: carboxymethylcellulose (CMC)): 113 % of control
- T/C (endpoint: mean survival time, dose: 50.0 mg/kg/injection, schedule: Q01DX Z (im), vehicle: carboxymethylcellulose (CMC)): 110 % of control
- T/C (endpoint: mean survival time, dose: 50.0 mg/kg/injection, schedule: Q01DX Z (ip), vehicle: carboxymethylcellulose (CMC)): 123 % of control
- T/C (endpoint: mean survival time, dose: 50.0 mg/kg/injection, schedule: Q01DX Z (sc), vehicle: carboxymethylcellulose (CMC)): 116 % of control
- T/C (endpoint: mean survival time, dose: 54.0 mg/kg/injection, schedule: Q01DX009 (ip), vehicle: saline): 183 % of control and 208 % of control
- T/C (endpoint: mean survival time, dose: 81.0 mg/kg/injection, schedule: Q01DX Z (ip), vehicle: carboxymethylcellulose (CMC)): 117 % of control
- T/C (endpoint: mean survival time, dose: 90.0 mg/kg/injection, schedule: Q01DX Z (ip), vehicle: methylcellulose (MC)): 155 % of control
- T/C [2]: 103 % of control and 110 % of control
- T/C [3]: 121 % of control
- T/C (endpoint: mean survival time, dose: 100.0 mg/kg/injection, schedule: Q01DX006 (iv), vehicle: carboxymethylcellulose (CMC)): 123 % of control
- T/C (endpoint: mean survival time, dose: 100.0 mg/kg/injection, schedule: Q01DX Z (ip), vehicle: carboxymethylcellulose (CMC)): 155 % of control
- T/C (endpoint: mean survival time, dose: 100.0 mg/kg/injection, schedule: Q01DX Z (oral), vehicle: carboxymethylcellulose (CMC)): 162 % of control
- T/C [4]: 111 % of control
- T/C (endpoint: mean survival time, dose: 120.0 mg/kg/injection, schedule: Q01DX009 (ip), vehicle: saline): 202 % of control and 218 % of control
- T/C (endpoint: mean survival time, dose: 150.0 mg/kg/injection, schedule: Q03DX008 (ip), vehicle: carboxymethylcellulose (CMC)): 205 % of control
- T/C [5]: 108 % of control and 124 % of control
- T/C (endpoint: mean survival time, dose: 200.0 mg/kg/injection, schedule: Q01DX Z (im), vehicle: carboxymethylcellulose (CMC)): 158 % of control
- T/C (endpoint: mean survival time, dose: 200.0 mg/kg/injection, schedule: Q01DX Z (ip), vehicle: carboxymethylcellulose (CMC)): 162 % of control
- T/C (endpoint: mean survival time, dose: 200.0 mg/kg/injection, schedule: Q01DX Z (oral), vehicle: carboxymethylcellulose (CMC)): 90 % of control
- T/C (endpoint: mean survival time, dose: 200.0 mg/kg/injection, schedule: Q01DX Z (sc), vehicle: carboxymethylcellulose (CMC)): 158 % of control
- T/C (endpoint: mean survival time, dose: 300.0 mg/kg/injection, schedule: Q03DX008 (ip), vehicle: carboxymethylcellulose (CMC)): 181 % of control
- T/C (endpoint: mean survival time, dose: 350.0 mg/kg/injection, schedule: Q07DX004 (ip), vehicle: carboxymethylcellulose (CMC)): 215 % of control
- T/C [6]: 102 % of control
- T/C [7]: 114 % of control
- T/C (endpoint: mean survival time, dose: 400.0 mg/kg/injection, schedule: Q01DX Z (im), vehicle: carboxymethylcellulose (CMC)): 100 % of control
- T/C (endpoint: mean survival time, dose: 400.0 mg/kg/injection, schedule: Q01DX Z (ip), vehicle: carboxymethylcellulose (CMC)): 94 % of control
- T/C (endpoint: mean survival time, dose: 400.0 mg/kg/injection, schedule: Q01DX Z (sc), vehicle: carboxymethylcellulose (CMC)): 98 % of control
- T/C [8]: 153 % of control and 180 % of control
- T/C (endpoint: mean survival time, dose: 600.0 mg/kg/injection, schedule: Q03DX003 (ip), vehicle: carboxymethylcellulose (CMC)): 90 % of control
- T/C (endpoint: mean survival time, dose: 700.0 mg/kg/injection, schedule: Q07DX004 (ip), vehicle: carboxymethylcellulose (CMC)): 100 % of control
- T/C (endpoint: mean survival time, dose: 800.0 mg/kg/injection, schedule: Q01DX001 (ip), vehicle: carboxymethylcellulose (CMC)): 98 % of control and 116 % of control
- T/C (endpoint: median survival time, dose: 10.0 mg/kg/injection, schedule: Q01DX009 (ip), vehicle: saline): 105 % of control and 87 % of control
- T/C (endpoint: median survival time, dose: 40.0 mg/kg/injection, schedule: Q01DX009 (ip), vehicle: saline): 150 % of control
- T/C (endpoint: median survival time, dose: 80.0 mg/kg/injection, schedule: Q01DX009 (ip), vehicle: saline): 181 % of control and 183 % of control

Structure (SMILES): Cc1nc(-c2ccccc2)oc1-c1ccccc1
- T/C [4]: 92 % of control
- T/C (endpoint: mean survival time, dose: 200.0 mg/kg/injection, schedule: Q04DX003 (ip), vehicle: saline): 95 % of control
- T/C [8]: 92 % of control

Structure (SMILES): COc1ccc(C)cc1CCCO
- T/C [1]: 101 % of control
- T/C [3]: 101 % of control
- T/C (endpoint: mean survival time, dose: 200.0 mg/kg/injection, schedule: Q01DX001 (ip), vehicle: saline): 101 % of control
- T/C [7]: 93 % of control

Structure (SMILES): CCCCCCC(C1CCCCC1)C1CCCCC1
- T/C [2]: 86 % of control
- T/C [5]: 102 % of control
- T/C [6]: 91 % of control

Structure (SMILES): CCC(C)C(N)C(=O)OCc1ccccc1 (configuration not stated)
- T/C (endpoint: mean survival time, dose: 50.0 mg/kg/injection, schedule: Q01DX009 (ip), vehicle: Klucel (hydroxypropylcellulose) (HPC)): 88 % of control
- T/C (endpoint: mean survival time, dose: 100.0 mg/kg/injection, schedule: Q01DX009 (ip), vehicle: Klucel (hydroxypropylcellulose) (HPC)): 90 % of control
- T/C (endpoint: mean survival time, dose: 100.0 mg/kg/injection, schedule: Q04DX002 (ip), vehicle: Klucel (hydroxypropylcellulose) (HPC)): 95 % of control
- T/C (endpoint: mean survival time, dose: 200.0 mg/kg/injection, schedule: Q01DX009 (ip), vehicle: Klucel (hydroxypropylcellulose) (HPC)): 92 % of control
- T/C (endpoint: mean survival time, dose: 200.0 mg/kg/injection, schedule: Q04DX002 (ip), vehicle: Klucel (hydroxypropylcellulose) (HPC)): 92 % of control
- T/C (endpoint: mean survival time, dose: 400.0 mg/kg/injection, schedule: Q04DX002 (ip), vehicle: Klucel (hydroxypropylcellulose) (HPC)): 89 % of control
